Several values for one entry are separate records, joined by “and”; a condition that tells them apart may be missing. Identical values can stand only once. ± gives the expanded uncertainty stated by the source.
Assays:
[1] = Molar enthalpy of transition or fusion; settings: Crystal; DSC
[2] = for vapor or sublimation pressure: Liquid, Rate of evaporation; for Normal melting temperature: Crystal, DTA
[3] = molar heat capacity at constant pressure; settings: 101.33 kPa, Small sample (50 mg) DSC

c1ccc2c(c1)OCCOCCOCCOCCOc1ccccc1OCCOCCOCCOCCO2 [dibenzo-30-crown-10]
Settings	Molar enthalpy of transition or fusion [kcal/mol]	Normal melting temperature [°C]
[1]	20.7 ± 0.43	–
[2]	–	104.5 ± 0.39

[2]
Settings	vapor or sublimation pressure
545 K	0.0347 ± 0.011 kPa and 0.0354 ± 0.011 kPa
550 K	0.0405 ± 0.013 kPa and 0.0424 ± 0.014 kPa and 0.0433 ± 0.014 kPa
555 K	0.0515 ± 0.017 kPa and 0.0526 ± 0.017 kPa and 0.0536 ± 0.017 kPa
560 K	0.0655 ± 0.021 kPa and 0.0614 ± 0.019 kPa and 0.0649 ± 0.021 kPa
565 K	0.0772 ± 0.025 kPa and 0.0781 ± 0.025 kPa and 0.0764 ± 0.024 kPa
570 K	0.0969 ± 0.031 kPa and 0.0924 ± 0.03 kPa and 0.0946 ± 0.03 kPa
575 K	0.116 ± 0.037 kPa and 0.118 ± 0.038 kPa and 0.1176 ± 0.038 kPa
580 K	0.1429 ± 0.046 kPa and 0.1455 ± 0.047 kPa and 0.1444 ± 0.047 kPa
585 K	0.1768 ± 0.057 kPa and 0.1779 ± 0.057 kPa and 0.188 ± 0.06 kPa
590 K	0.2184 ± 0.069 kPa and 0.2143 ± 0.068 kPa and 0.2192 ± 0.069 kPa
595 K	0.2675 ± 0.085 kPa and 0.2625 ± 0.083 kPa and 0.2682 ± 0.085 kPa

[3]
Settings	molar heat capacity at constant pressure [J/K/mol]
295 K, Crystal	668.8 ± 41
298.15 K, Crystal	680.4 ± 42
300 K, Crystal	686.9 ± 42
305 K, Crystal	700.3 ± 43
310 K, Crystal	715.3 ± 44
315 K, Crystal	728.4 ± 45
320 K, Crystal	741.6 ± 46
325 K, Crystal	755.5 ± 47
330 K, Crystal	769.9 ± 48
335 K, Crystal	783.3 ± 48
340 K, Crystal	797 ± 49
345 K, Crystal	811.5 ± 50
350 K, Crystal	826.4 ± 51
355 K, Crystal	844.9 ± 52
360 K, Crystal	868.2 ± 54
390 K, Liquid	1144.6 ± 68
395 K, Liquid	1148.9 ± 69
400 K, Liquid	1153 ± 69
405 K, Liquid	1159.5 ± 69
410 K, Liquid	1164.6 ± 70
415 K, Liquid	1169.3 ± 70
420 K, Liquid	1179.2 ± 70
425 K, Liquid	1186.2 ± 71
430 K, Liquid	1187.9 ± 71
435 K, Liquid	1195 ± 71
440 K, Liquid	1196.6 ± 71
445 K, Liquid	1199.2 ± 72
450 K, Liquid	1201.2 ± 72
455 K, Liquid	1200.9 ± 72
460 K, Liquid	1201.6 ± 72
465 K, Liquid	1202 ± 72
470 K, Liquid	1201.9 ± 72

c1ccc2c(c1)OCCOCCOc1ccccc1OCCOCCO2 [dibenzo[b,k][1,4,7,10,13,16]hexaoxacyclooctadecane]
Settings	Molar enthalpy of transition or fusion [kcal/mol]	Normal melting temperature [°C]
[1]	13.4 ± 0.287	–
[2]	–	162.50 ± 0.39

[2]
Settings	vapor or sublimation pressure
545 K	0.5186 ± 0.17 kPa and 0.4924 ± 0.16 kPa and 0.5452 ± 0.17 kPa
550 K	0.6057 ± 0.19 kPa and 0.6363 ± 0.2 kPa and 0.6637 ± 0.21 kPa
555 K	0.7424 ± 0.24 kPa and 0.8052 ± 0.26 kPa and 0.7755 ± 0.25 kPa
560 K	0.9045 ± 0.29 kPa and 0.9751 ± 0.31 kPa and 0.9424 ± 0.3 kPa
565 K	1.095 ± 0.35 kPa and 1.169 ± 0.37 kPa and 1.137 ± 0.36 kPa
570 K	1.323 ± 0.42 kPa and 1.398 ± 0.44 kPa and 1.369 ± 0.43 kPa
575 K	1.589 ± 0.5 kPa and 1.663 ± 0.53 kPa and 1.638 ± 0.52 kPa
580 K	1.903 ± 0.6 kPa and 1.969 ± 0.62 kPa and 1.948 ± 0.62 kPa
585 K	2.258 ± 0.71 kPa and 2.321 ± 0.73 kPa and 2.316 ± 0.73 kPa
590 K	2.673 ± 0.84 kPa and 2.72 ± 0.86 kPa and 2.717 ± 0.85 kPa
595 K	3.164 ± 0.99 kPa and 3.142 ± 0.98 kPa and 3.16 ± 0.99 kPa

[3]
Settings	molar heat capacity at constant pressure [J/K/mol]
295 K, Crystal	434.6 ± 44
298.15 K, Crystal	439.7 ± 44
300 K, Crystal	443.6 ± 45
305 K, Crystal	449 ± 45
310 K, Crystal	457.8 ± 46
315 K, Crystal	462.9 ± 47
320 K, Crystal	468.4 ± 47
325 K, Crystal	474.6 ± 48
330 K, Crystal	481.5 ± 49
335 K, Crystal	487.5 ± 49
340 K, Crystal	494.7 ± 50
345 K, Crystal	500.5 ± 50
350 K, Crystal	506.2 ± 51
355 K, Crystal	513.3 ± 52
360 K, Crystal	520.1 ± 52
365 K, Crystal	527 ± 53
370 K, Crystal	533.2 ± 54
375 K, Crystal	540.2 ± 55
380 K, Crystal	547.6 ± 55
385 K, Crystal	555.2 ± 56
390 K, Crystal	563.2 ± 57
395 K, Crystal	571.3 ± 58
400 K, Crystal	580.1 ± 59
405 K, Crystal	588.7 ± 60
410 K, Crystal	596.8 ± 60
415 K, Crystal	604.8 ± 61
445 K, Liquid	755.4 ± 60
450 K, Liquid	761 ± 60
455 K, Liquid	768.7 ± 61
460 K, Liquid	772.5 ± 61
465 K, Liquid	780.2 ± 62
470 K, Liquid	787 ± 62
475 K, Liquid	792 ± 63
480 K, Liquid	799.7 ± 63
485 K, Liquid	806 ± 64
490 K, Liquid	812.6 ± 64

c1ccc2c(c1)ccc1ccccc12 [phenanthrene]
[2]
Settings	vapor or sublimation pressure [kPa]
384 K	0.0567 ± 0.021
388 K	0.0795 ± 0.026
392 K	0.097 ± 0.031
396 K	0.1144 ± 0.037
400 K	0.146 ± 0.048
404 K	0.1785 ± 0.057
408 K	0.2069 ± 0.066
412 K	0.2439 ± 0.078
416 K	0.2926 ± 0.094
420 K	0.3468 ± 0.11

— the NIST ThermoML archive (doi:10.1016/j.tca.2016.03.013)
